US8575201B2 (Boehringer Ingelheim International GmbH, priority 2010, dated 2013)

Tests used:
[1] = test system: biomarkers for myocardial infarction risk; conditions: clinical trial; cited from earlier work
[2] = target: recombinant human FLAP protein (Homo sapiens (Human), UniProt P20292); test: FLAP binding assay (Scintillation Proximity Assay, displacement of [125I]L-691,831); conditions: read-out: FLAP SPA IC50
Summary of the method: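 Scintillation proximity displacement of an iodinated (125I) FLAP inhibitor by test compounds, using 100,000×g membrane fraction from lysed cells. Final beads 200 μg/well and protein 5 μg/well; plates shaken 2 h before reading.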

[3] = test system: synthesis of LTB4 in human whole blood; test: Human whole blood LTB4 production inhibition assay; format: cell-based; conditions: calcimycin stimulated, read-out: hWB LTB4 IC50
Summary of the method: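 Heparinized human whole blood was preincubated with compound for 15 min at 37° C, then stimulated with calcimycin (20 μM final, in PBS pH 7.4) for a further 30 min at 37° C. Plasma LTB4 was quantified by antibody-based homogeneous time-resolved fluorescence.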

proteinuria = conditions: clinical trial, human glomerulonephritis; cited from earlier work
atherosclerotic plaque [4] = conditions: oral dosing, high-fat diet from 2 to 6 months of age; cited from earlier work
atherosclerotic plaque [5] = conditions: infusion, treated for four weeks; cited from earlier work

Chain of recombinant human FLAP protein (P20292 whole entry): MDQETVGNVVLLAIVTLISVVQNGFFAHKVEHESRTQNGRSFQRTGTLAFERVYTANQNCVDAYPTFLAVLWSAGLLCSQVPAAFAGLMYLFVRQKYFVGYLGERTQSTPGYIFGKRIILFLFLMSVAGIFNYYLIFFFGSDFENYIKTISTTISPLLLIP

Row | IC50 [2] [nM] | IC50 [3] [nM] | SMILES | other results
1 | – | – | O=C(O)[C@@H](c1ccc(OCc2ccc3ccccc3n2)cc1)C1CCCC1 [DG-031] | effect on biomarkers for myocardial infarction risk [1]: dose-dependent suppression of several biomarkers
2 | 83 | 510 | CN(CC1CCCO1)C(=O)Cn1cc(-c2nc(C3(c4ccc(-c5cnc(N)nc5)nc4)CCC3)no2)cn1 (stereo not drawn) [Example 159, 2-[4-(3-{1-[6-(2-amino-pyrimidin-5-yl)-pyridin-3-yl]-cyclobutyl}-[1,2,4]oxadiazol-5-yl)-pyrazol-1-yl]-N-methyl-N-(tetrahydro-furan-2-ylmethyl)-acetamide] | –
3 | 95 | 540 | CN(C(=O)Cn1cc(-c2nc(C3(c4ccc(-c5cnc(N)nc5)nc4)CCC3)no2)cn1)C1CC1 [Example 160, 2-[4-(3-{1-[6-(2-amino-pyrimidin-5-yl)-pyridin-3-yl]-cyclobutyl}-[1,2,4]oxadiazol-5-yl)-pyrazol-1-yl]-N-cyclopropyl-N-methyl-acetamide] | –
4 | 250 | 1100 | COC1CCN(C(=O)Cn2cc(-c3nc(C4(c5ccc(-c6cnc(N)nc6)nc5)CCC4)no3)cn2)C1 (stereo not drawn) [Example 161, 2-[4-(3-{1-[6-(2-amino-pyrimidin-5-yl)-pyridin-3-yl]-cyclobutyl}-[1,2,4]oxadiazol-5-yl)-pyrazol-1-yl]-1-(3-methoxy-pyrrolidin-1-yl)-ethanone] | –
5 | 130 | 490 | CCN(C)C(=O)Cn1cc(-c2nc(C3(c4ccc(-c5cnc(N)nc5)nc4)CCC3)no2)cn1 [Example 162, 2-[4-(3-{1-[6-(2-amino-pyrimidin-5-yl)-pyridin-3-yl]-cyclobutyl}-[1,2,4]oxadiazol-5-yl)-pyrazol-1-yl]-N-ethyl-N-methyl-acetamide] | –
6 | 110 | 300 | CN(C)C(=O)Cn1cc(-c2nc(C3(c4ccc(-c5ccc(N)nc5)nc4)CCC3)no2)cn1 [Example 163, 2-(4-{3-[1-(6′-amino-[2,3′]bipyridinyl-5-yl)-cyclobutyl]-[1,2,4]oxadiazol-5-yl}-pyrazol-1-yl)-N,N-dimethyl-acetamide] | –
7 | 43 | 170 | CN(C)C(=O)Cn1cc(-c2nc(C3(c4ccc(-c5cnc(N)cn5)nc4)CCC3)no2)cn1 [Example 164, 2-[4-(3-{1-[6-(5-amino-pyrazin-2-yl)-pyridin-3-yl]-cyclobutyl}-[1,2,4]oxadiazol-5-yl)-pyrazol-1-yl]-N,N-dimethyl-acetamide] | –
8 | 73 | 280 | CNc1ncc(-c2ccc(C3(c4noc(-c5cnn(CC(C)(C)O)c5)n4)CCC3)cn2)cn1 [Example 165, 2-Methyl-1-[4-(3-{1-[6-(2-methylamino-pyrimidin-5-yl)-pyridin-3-yl]-cyclobutyl}-[1,2,4]oxadiazol-5-yl)-pyrazol-1-yl]-propan-2-ol] | –
9 | 140 | 680 | N#Cc1cc(-c2ccc(C3(c4noc(-c5cnn(C6COC6)c5)n4)CCC3)cn2)cnc1N [Example 167, 6′-Amino-5-{1-[5-(1-oxetan-3-yl-1H-pyrazol-4-yl)-[1,2,4]oxadiazol-3-yl]-cyclobutyl}-[2,3′]bipyridinyl-5′-carbonitrile] | –
10 | 33 | 99 | CNc1cnc(-c2ccc(C3(c4noc(-c5cnn(C)c5)n4)CCC3)cn2)cn1 [Example 168, Methyl-[5-(5-{1-[5-(1-methyl-1H-pyrazol-4-yl)-[1,2,4]oxadiazol-3-yl]-cyclobutyl}-pyridin-2-yl)-pyrazin-2-yl]-amine] | –
11 | 50 | 76 | COCCn1cc(-c2nc(C3(c4ccc(-c5cnc(N)cn5)nc4)CCC3)no2)cn1 [Example 171, 5-[5-(1-{5-[1-(2-Methoxy-ethyl)-1H-pyrazol-4-yl]-[1,2,4]oxadiazol-3-yl}-cyclobutyl)-pyridin-2-yl]-pyrazin-2-ylamine] | –
12 | 39 | 74 | Cn1cc(-c2nc(C3(c4ccc(-c5cnc(N)cn5)nc4)CCC3)no2)cn1 [Example 174, 5-(5-{1-[5-(1-Methyl-1H-pyrazol-4-yl)-[1,2,4]oxadiazol-3-yl]-cyclobutyl}-pyridin-2-yl)-pyrazin-2-ylamine] | –
13 | 830 | 620 | Cc1nc(N)ncc1-c1ccc(C2(c3noc(-c4cnn(CC(C)(C)O)c4)n3)CCC2)cn1 [Example 175, 1-[4-(3-{1-[6-(2-Amino-4-methyl-pyrimidin-5-yl)-pyridin-3-yl]-cyclobutyl}-[1,2,4]oxadiazol-5-yl)-pyrazol-1-yl]-2-methyl-propan-2-ol] | –
14 | 23 | 73 | CNc1cnc(-c2ccc(C3(c4noc(-c5cnn(C6COC6)c5)n4)CCC3)cn2)cn1 [Example 176, Methyl-[5-(5-{1-[5-(1-oxetan-3-yl-1H-pyrazol-4-yl)-[1,2,4]oxadiazol-3-yl]-cyclobutyl}-pyridin-2-yl)-pyrazin-2-yl]-amine] | –
15 | 32 | 160 | CNc1cnc(-c2ccc(C3(c4noc(-c5cnn(CC(C)(C)O)c5)n4)CCC3)cn2)cn1 [Example 177, 2-Methyl-1-[4-(3-{1-[6-(5-methylamino-pyrazin-2-yl)-pyridin-3-yl]-cyclobutyl}-[1,2,4]oxadiazol-5-yl)-pyrazol-1-yl]-propan-2-ol] | –
16 | – | – | CC(C)(C)Sc1c(CC(C)(C)C(=O)O)n(Cc2ccc(Cl)cc2)c2ccc(OCc3ccc4ccccc4n3)cc12 [MK-591] | effect on proteinuria (proteinuria): reduce proteinuria
17 | – | – | CC(C)c1ccc2c(c1)c(SC(C)(C)C)c(CC(C)(C)C(=O)O)n2Cc1ccc(Cl)cc1 [MK-886] | decrease in plaque coverage in the aorta (atherosclerotic plaque [4]): 56%; decrease in plaque coverage in the aortic root (atherosclerotic plaque [4]): 43%; decrease in plaque area in the aortic root (atherosclerotic plaque [5]): ~40%
